The values below come from patent US20230416245A1, “ADENOSINE ANALOGS FOR THE TREATMENT OF DISEASE” (BIOINTERVENE, INC., priority 2020, published 2023).

For test [1], the target named is human adenosine A3 receptor (Homo sapiens (Human), UniProt P0DMS8). Description: Adenosine receptor binding assay ([125I]-AB-MECA competition). The conditions noted are these: inhibition of 0.15 nM [125I]-AB-MECA binding, membranes of cells expressing human A3 receptor; read-out: hA3 Ki: Ki. An excerpt: Example 30: Adenosine Receptor Binding Assay
Chain of human adenosine A3 receptor (P0DMS8 whole entry): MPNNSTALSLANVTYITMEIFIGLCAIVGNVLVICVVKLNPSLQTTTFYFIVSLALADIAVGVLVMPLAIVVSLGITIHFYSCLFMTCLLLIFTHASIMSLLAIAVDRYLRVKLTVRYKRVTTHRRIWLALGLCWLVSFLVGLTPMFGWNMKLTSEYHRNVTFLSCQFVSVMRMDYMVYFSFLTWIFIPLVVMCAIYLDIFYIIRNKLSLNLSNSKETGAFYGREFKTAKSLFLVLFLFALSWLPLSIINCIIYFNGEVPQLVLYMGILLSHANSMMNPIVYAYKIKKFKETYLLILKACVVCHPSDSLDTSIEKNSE
Materials and Reference Compounds: [^125I]-AB-MECA and [^3H]CCPA are both obtained from Amersham Biosciences (Little Chalfont, UK). IB-MECA are obtained from Tocris (Bristol, UK) and N6-cyclopentyl adenosine (CPA) is obtained from Sigma-Alrich (Poole, UK). Cell culture media, G418 and hygromycin are obtained from Invitrogen (Paisley, UK). Fetal calf serum is obtained from Perbio Science (Cheshire, UK). All other reagents are obtained from Fisher Chemicals (Loughborough, UK).
The method followed is that of Yates L, Clark J H, Martin T J, James S, Broadley K J, Kidd E J. Radioligand binding and functional responses of ligands for human recombinant adenosine A3 receptors. Auton Autacoid Pharmacol. 2006; 26(2):191-200. Cells stably transfected with the human adenosine A3 or A1 receptor are grown in Dulbecco's modified Eagles medium with nutrient mixture F12 containing NaHCO3 and Glutamax. Media is supplemented with 10% fetal calf serum, geneticin (G418; 0.67 mg/mL), hygromycin (500 μg/mL) and adenosine deaminase (1 U/mL). Cells are maintained at 37° C. with 5% CO2 in air. Cells are harvested and homogenized in ice-cold Tris buffer [50 mM Tris, 150 mM NaCl, 1 mM ethylenediaminetetraacetic acid (EDTA), pH 7.4] supplemented with the peptidase inhibitors, 4-(2-aminoethyl)benzenesulfonylfluoride (1 mM) and bacitracin (0.1 mg/mL), using a Polytron homogenizer (3×10 s bursts). The homogenate was spun for 10 min (4° C.) at 500 g. The supernatant is retained and the pellet is re-suspended in the buffer, homogenized and spun as above. The combined supernatants are centrifuged for 15 min (4° C.) at 48,000 g. The resultant pellet is re-suspended in the buffer and centrifuged for a second time at 48,000 g. The membrane pellet is then suspended in Tris buffer containing no peptidase inhibitors or adenosine deaminase and stored at −80° C. at a protein concentration of 1 mg/mL.
Binding Assays: Radioligand-binding assays were performed using the adenosine A3 receptor agonist [^125I]-AB-MECA and the A1 receptor agonist [^3H]CCPA. Binding assays were conducted in a total volume of 100 μL containing a 50 mM Tris, pH 7.4 buffer with or without 10 mM MgCl2, 20 μg membranes and either 0.15 nM [^125I]-AB-MECA (for the A3 receptor) or 1 nM [^3H]CCPA (for the A1 receptor). Assays were conducted at room temperature for 60 min (A1 receptor) or 120 min (A3 receptor) and terminated by the addition of 2 ml of ice-cold wash buffer (50 mM Tris, pH 7.4 with or without 10 mM MgCl2) and rapid filtration over 0.03% polyethylenimine-treated Whatman GF/C filters using a Brandel cell harvester (Semat International Ltd., St Albans, UK). Filters were then washed three times with 2 ml of ice-cold buffer. The filter-bound radioactivity were counted using a Compugamma counter (LKB Wallac, Turku, Finland). Competition experiments were performed to investigate the ability of reference compounds and embodiments of the invention to inhibit [^125I]-AB-MECA binding. Non-specific binding were determined using the respective compound at its highest concentration.
Data Analysis: The Kd and Bmax values for binding data were calculated based upon the molar amounts of bound and free [^125I]-AB-MECA. […] IC50 and Ki values and Hill slopes for inhibition of the radioligand binding by the compounds of the invention were calculated from the ligand competition curves using the Excel spreadsheet and the Kd value calculated for either [^125I]-AB-MECA or [^3H]CCPA. The results were expressed as a percent of control specific binding and as a percent inhibition of control specific binding obtained in the presence of the compounds of the invention. The IC50 values (concentration causing a half-maximal inhibition of control specific binding) and Hill coefficients (nH) were determined by non-linear regression analysis of the competition curves generated with mean replicate values using Hill equation curve fitting: […]

The next test addresses ADORA3 (Homo sapiens (Human), UniProt P0DMS8). Kind of test: Intracellular calcium release assay (FLIPR). The test is classed as cell-based. The conditions noted are these: for pEC50: CHO-K1 cells, Fluo-4, top concentration 10 μM, read-out: Cell Calcium Assay EC50; for Cell Calcium Efficacy (%): percentage of the response to NECA. The protocol: Example 32: Intracellular Calcium Release Assay
Cell Culture: The table below lists the cell lines used that stably express the 4 subtypes of adenosine receptors, along with the growth medium used for each:
For experiments with the ADORA1- and ADORA3-expressing cells, the medium was aspirated and the cells washed twice with 10 mL DPBS. Two mL of trypsin was added and incubated at 37° C. for 1 minute. Then 10 mL of platting media was added to terminate the digestion and 1 mL of the solution was taken out for cell counting. ADORA2A- and ADORA2B-expressing cells were thawed rapidly in a 37° C. water bath. Cell suspensions were transferred to 50 mL conical tubes. Plating media was added to the 10 mL mark and then 1 mL taken out for cell counting. The 50 mL tubes containing the various types of cells were centrifuged at 1000 g. Then the supernatants were aspirated, being careful not to aspirate the cells. The cell pellets were resuspended in 3-5 mL platting media, then 0.5 mL was taken out for cell counting. Then the cell suspension was diluted to 1×10^6 cells/mL (20,000 cells per 20 μL per well) in platting medium, and cells were seeded into 384-well cell plates (Greiner-781946). The 384-well cell plate was placed in a 37° C./5% CO2 incubator (Thermo-371, Thermo Scientific) for 16-20 hours.
Preparation of the intracellular calcium imaging agent (Fluo-4 Direct™ Calcium Assay Kit, Invitrogen-F10471, Thermo Scientific): One mL of FLIPR Assay Buffer was added to 77 mg probenecid to make a 250 mM solution, which was used fresh for each day. One vial of Fluo-4 Direct™ crystals was thawed and 10 mL of FLIPR Assay Buffer was added to the vial. 0.2 mL of probenecid was added to each 10 mL vial of Fluo-Direct™ solution, such that the final assay concentration was 2.5 mM. It was vortexed, left to stand >5 min and protected from light. The dye was prepared fresh each day.
Compound Preparation: Compound plates were prepared as follows. First, the test compound was diluted to prepare a 2 mM solution and then 10-point 3-fold serial dilutions were made using ECHO (ECHO 555, LabCyte), then 900 nL was transferred to the compound plate. For all targets, the final top concentration of the test compound was […]. For agonist reference compounds, 10-point and 3-fold serial dilutions were made, then 900 nL was transferred to the assay plate. Then 30 μL of assay buffer was added to the compound plate and then the plate was centrifuged at 1000 rpm for 1 min.
FLIPR Assay: Cell plates were removed from the incubator, to which were added 20 μL 2×Fluo-4 Direct™ solution, then the plates were reincubated in a 5% CO2, 37° C. incubator for 50 min and at RT for 10 min. To run the protocol on the Fluorescent Imaging Plate Reader (FLIPR) TETRA (MD-FT0249, Molecular Devices, Inc.), 10 μL of assay buffer was transferred from the 384-well plate (Greiner-781280) to the cell plates and then the fluorescence signal was read. Then 10 μL of compound solution was transferred from the compound plate to the cell plates and the fluorescence signal was read. The “Max-Min” was calculated, starting from Read 91 to the maximum allowed. For agonists, activation %=(RLU−LC)/(HC−LC)*100, based on the following: RLU=relative light unit, 91 to maximum allowed signal; HC=average signal of the high concentration of agonist; LC=average signal of DMSO well. The data were fitted using GraphPad Prism 5, using the model “log(agonist) vs. response—Variable slope” to determine the EC50 value. The receptor efficacy of the test compound relative to the agonist NECA was calculated as a percentage (%) of the response to […]. Table 10 includes EC50 values for compounds described herein.
(Calcium assays in cells follow changes in intracellular calcium, usually with a dye or a luminescent sensor.)

pEC50, pKi: −log10 of the molar value.

Chain of ADORA3 (P0DMS8 whole entry): as above

Take `CNC(=O)[C@@]12C[C@@H]1[C@@H](n1cnc3c(NCC(F)F)cc(Cl)nc31)[C@H](O)[C@@H]2O` [Compound 82]: the pKi in test [1] was 8.32. Besides, at ADORA3, the pEC50 is 8.72 and the “Cell Calcium Efficacy (%)” value stood at 106%.
For the compound `O[C@@H]1[C@H](O)[C@@H]2C[C@@H]2[C@H]1n1cnc2c(NC3CCC3)cc(Cl)nc21` [Compound 44, (1R,2R,3S,4R,5S)-4-(5-chloro-7-(cyclobutylamino)-3H-imidazo[4,5-b]pyridin-3-yl)bicyclo[3.1.0]hexane-2,3-diol], the pKi in test [1] is 7.55. Moreover, at ADORA3, the negative logarithm of the EC50 (pEC50) is 7.64 and the “Cell Calcium Efficacy (%)” value is given as 52%.
The like results for `O[C@@H]1[C@H](O)[C@@H]2C[C@@H]2[C@H]1n1cnc2c(NCC(F)F)c(F)c(Cl)nc21` [Compound 61, (1R,2R,3S,4R,5S)-4-(5-chloro-7-((2,2-difluoroethyl)amino)-6-fluoro-3H-imidazo[4,5-b]pyridin-3-yl)bicyclo[3.1.0]hexane-2,3-diol] were, in that order, 8.15, 7.22 and 67.3%.
On to `O[C@@H]1[C@H](O)[C@@H]2C[C@@H]2[C@H]1n1cnc2c(NCC3CCC3)cc(Cl)nc21` [Compound 67, (1R,2R,3S,4R,5S)-4-(5-chloro-7-((cyclobutylmethyl)amino)-3H-imidazo[4,5-b]pyridin-3-yl)bicyclo[3.1.0]hexane-2,3-diol], for which the pKi in test [1] is 7.03.
With `O[C@@H]1[C@H](O)[C@@H]2C[C@@H]2[C@H]1n1cnc2c(NCc3cc(F)ccc3F)cc(Cl)nc21` [Compound 45, (1R,2R,3S,4R,5S)-4-(5-chloro-7-((2,5-difluorobenzyl)amino)-3H-imidazo[4,5-b]pyridin-3-yl)bicyclo[3.1.0]hexane-2,3-diol], the negative logarithm of the Ki (pKi) in test [1] was 8.89. In addition, on ADORA3, the negative-log EC50 (pEC50) is 7.53 and the “Cell Calcium Efficacy (%)” value is 22.5%.
On to `CCNC(=O)[C@@]12C[C@@H]1[C@@H](n1cnc3c(NCC)cc(Cl)nc31)[C@H](O)[C@@H]2O` [Compound 69, (1S,2R,3S,4R,5S)-4-(5-chloro-7-(ethylamino)-3H-imidazo[4,5-b]pyridin-3-yl)-N-ethyl-2,3-dihydroxybicyclo[3.1.0]hexane-1-carboxamide], for which, in test [1], the negative-log Ki (pKi) is 8.77.
The same measure, in the same setting: then `CNC(=O)[C@@]12C[C@@H]1[C@@H](n1cnc3c(NCC(C)C)cc(Cl)nc31)[C@H](O)[C@@H]2O` [Compound 83, (1S,2R,3S,4R,5S)-4-(5-chloro-7-(isobutylamino)-3H-imidazo[4,5-b]pyridin-3-yl)-2,3-dihydroxy-N-methylbicyclo[3.1.0]hexane-1-carboxamide], with 8.79.
Still for that read-out and setting: the result for `Nc1c(OCc2cccc(Cl)c2)c(Cl)nc2c1ncn2[C@H]1[C@H](O)[C@H](O)[C@@H]2C[C@@H]21` [Compound 92, (1R,2R,3S,4R,5S)-4-(7-amino-5-chloro-6-((3-chlorobenzyl)oxy)-3H-imidazo[4,5-b]pyridin-3-yl)bicyclo[3.1.0]hexane-2,3-diol] reads 7.57; that for `CNC(=O)C12C[C@@H]1[C@@H](n1cnc3c(NCC4CCC4)cc(Cl)nc31)[C@H](O)[C@@H]2O` (stereo in doubt) [Compound 65, (1S,2R,3S,4R,5S)-4-(5-chloro-7-((cyclobutylmethyl)amino)-3H-imidazo[4,5-b]pyridin-3-yl)-2,3-dihydroxy-N-methylbicyclo[3.1.0]hexane-1-carboxamide], 8.46.
Same read-out and setting: the result for `CCCNc1cc(Cl)nc2c1ncn2[C@H]1[C@H](O)[C@H](O)C2(C(=O)NC)C[C@H]12` (stereo in doubt) [Compound 64, (1S,2R,3S,4R,5S)-4-(5-chloro-7-(propylamino) 3H-imidazo[4,5-b]pyridin-3-yl)-2,3-dihydroxy-N-methylbicyclo[3.1.0]hexane-1-carboxamide] reads 9.19.

A word on the pKi: it is the Ki on a negative log10 scale, so that one unit is a factor of ten. As a reminder, the pEC50 is −log10 of the EC50, conventionally taken in molar units.
